Assay results as given in patent publication US10278942B2 (PELOTON THERAPEUTICS, INC., priority 2015, dated 2019).

How the values were obtained:
786-O cells = experiment: VEGF ELISA Assay; type: cell-based; conditions: Homo sapiens, 786-0
In short: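 Secreted VEGF measured by ELISA, with EC50 from a four-parameter dose-response fit. Viability of the same plate read afterwards by CellTiter-Glo luminescence.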

[1] = target: T1, HIF-2α HIS TAG-PASB Domain (Homo sapiens, UniProt Q99814); experiment: HIF-2α Scintillation Proximity Assay (SPA); type: binding; conditions: read-out: Scintillation Proximity Assay IC50
T1 construct: 100 nM HIF-2α HIS TAG-PASB Domain
In short: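 IC50 values rest on percent inhibition, where the sample signal is scaled between high and low controls. Wells contain about 100 μL: compound dispensed as 2 μL of DMSO solution, 88 μL protein-probe mix and 10 μL of beads.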

786-O-Hif-Luc cells = experiment: Luciferase Assay (HIF responsive elements reporter); conditions: read-out: Mean Luciferase EC50 (nM), 786-O-Hif-Luc cells
Procedure: A pool of infected cells were then selected against 2 μg/mL of puromycin (P8833, Sigma) for 10 days followed by limited dilution to select single clones. […] Each concentration was tested in triplicate. After about 24 hours, luciferase activity was determined using ONE-Glo Luciferase Assay Reagent (E6110, Promega) following the manufacturer's recommended procedure. EC50 were calculated using Dotmatics software.

T1 sequence (Q99814 240-350 limits assumed): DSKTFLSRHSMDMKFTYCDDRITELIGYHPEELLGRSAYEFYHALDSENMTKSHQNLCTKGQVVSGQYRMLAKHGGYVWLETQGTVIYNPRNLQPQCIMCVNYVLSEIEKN

Q: Which results are given for `CS(=O)(=O)c1ccc(OC2CC(F)(F)C2)c2c1[C@H](O)C(F)(F)C2` [Compound 734]?
A: EC50 (786-O cells): 0.25 to 1 µM; IC50 [1]: 0.05 to 0.249 µM; EC50 (786-O-Hif-Luc cells): 50 to 249 nM

Q: Which EC50 (786-O cells) does the source give for `CS(=O)(=O)c1ccc(O[C@H]2C[C@H](F)C2)c2c1[C@H](O)C(F)(F)[C@@H]2F` [Compound 736] here?
A: The EC50 was 0.05 to 0.249 µM.

Q: And the IC50 [1]?
A: The IC50 was under 0.05 µM.

Q: What about the EC50 (786-O-Hif-Luc cells) of the same compound?
A: The EC50 was 50 to 249 nM.

Q: With `CS(=O)(=O)c1ccc(O[C@H]2C[C@@H](F)C2)c2c1[C@H](O)C(F)(F)[C@@H]2F` [Compound 740] as the compound, how does the EC50 (786-O cells) read?
A: Its EC50 is 0.05 to 0.249 µM.

Q: What about the IC50 [1] of the same compound?
A: The IC50 was under 0.05 µM.

Q: What about the EC50 (786-O-Hif-Luc cells) of the same compound?
A: The EC50 was 50 to 249 nM.

Q: Which EC50 (786-O cells) does the source give for `O=S(=O)(CF)c1ccc(O[C@H]2C[C@H](F)C2)c2c1[C@H](O)C(F)(F)[C@@H]2F` [Compound 742] here?
A: Its EC50 is under 0.05 µM.

Q: And the IC50 [1]?
A: The IC50 was under 0.05 µM.

Q: What about the EC50 (786-O-Hif-Luc cells) of the same compound?
A: The EC50 was under 50 nM.

Q: Which results are given for `O=S(=O)(CF)c1ccc(O[C@H]2C[C@H](F)C2)c2c1[C@H](O)[C@H](F)[C@@H]2F` [Compound 743]?
A: EC50 (786-O cells): 0.05 to 0.249 µM; IC50 [1]: < 0.05 µM; EC50 (786-O-Hif-Luc cells): < 50 nM

Q: Which EC50 (786-O cells) does the source give for `O=S(=O)(c1ccc(OC2CCOCC2)c2c1[C@H](O)C(F)(F)C2)C(F)(F)F` [Compound 744] here?
A: Its EC50 is under 0.05 µM.

Q: What about the IC50 [1] of the same compound?
A: The IC50 was under 0.05 µM.

Q: And the EC50 (786-O-Hif-Luc cells)?
A: The EC50 was under 50 nM.

Q: Which EC50 (786-O cells) does the source give for `CS(=O)(=O)c1ccc(O[C@H]2C[C@H](C#N)C2)c2c1[C@H](O)C(F)(F)[C@@H]2F` [Compound 760] here?
A: The EC50 was 0.05 to 0.249 µM.

Q: And the IC50 [1]?
A: The IC50 was under 0.05 µM.

Q: What about the EC50 (786-O-Hif-Luc cells) of the same compound?
A: Its EC50 is 50 to 249 nM.

Q: `CS(=O)(=O)c1ccc(O[C@H]2C[C@@H](C#N)C2)c2c1[C@H](O)C(F)(F)[C@@H]2F` [Compound 761] was tested. Which EC50 (786-O cells) did it give?
A: The EC50 was 0.05 to 0.249 µM.

Q: What about the IC50 [1] of the same compound?
A: Its IC50 is under 0.05 µM.

Q: And the EC50 (786-O-Hif-Luc cells)?
A: The EC50 was 50 to 249 nM.

Q: With `O=S(=O)(c1ccc(OC2CCOCC2)c2c1[C@H](O)C(F)(F)C2)C(F)F` [Compound 783] as the compound, how does the EC50 (786-O cells) read?
A: The EC50 was 0.05 to 0.249 µM.

Q: And the IC50 [1]?
A: Its IC50 is under 0.05 µM.

Q: And the EC50 (786-O-Hif-Luc cells)?
A: The EC50 was under 50 nM.

Q: Which results are given for `O=S(=O)(c1ccc(OC2COC2)c2c1[C@H](O)C(F)(F)C2)C(F)(F)F` [Compound 784]?
A: EC50 (786-O cells): 0.05 to 0.249 µM; IC50 [1]: 0.05 to 0.249 µM; EC50 (786-O-Hif-Luc cells): 50 to 249 nM
